From PubChem BioAssay AID2060489 (Molecular Pharmacology Branch, DTP, NCI, 2025)

System: 922993-354-T-J3-PDC complex spheroids, viability
Assay: Anticancer human tumor 922993-354-T-J3-PDC patient-derived endometrial carcinoma cell line growth inhibition [GQUAD]
Conditions: for IC50: curve of first compound; for viability, T/C: stronger effect = lower value; active = viability on the fitted dose curve at most 10% of control; inactive = the rest
Source text: DNA G-quadruplex Stabilizer Agents in Combinations in Complex Spheroids
A high-throughput screen of multi-cell type tumor spheroids was designed to identify active combinations of DNA G-quadruplex stabilizer agents and targeted small molecules. Complex spheroids include a stromal component modeled by human endothelial cells (HUVEC) and fibroblasts modeled by human mesenchymal stem cells (MSCs). The concentration ranges selected for each drug and investigational agent were based upon clinically achievable concentrations if the clinical Cmax of the agent was known.
Compounds. The drugs and investigational agents: pidnarulex (CX-5461; NSC782164), APTO-253 (NSC789042), BRACO-19 (NSC847499), peposertib (NSC802822), ceralasertib (NSC780249), elimusertib (NSC800525), camonsertib (NSC841442), AZD-1390 (NSC803789), olaparib (NSC753686), talazoparib (NSC767125), ART-558 (NSC835418), sotorasib (NSC818433), MRTX-1133 (NSC836407), SN-38 (NSC673596), topotecan (NSC609699), etoposide (NSC141540), doxorubicin (NSC123127), gemcitabine (NSC613327), 5-fluorouracil (NSC19893), paclitaxel (NSC125973), vemurafenib (NSC761431), panobinostat (NSC761190), R-306465 (JNJ-16241199; NSC773264), adavosertib (NSC754352), TP-3654 (NSC805149), carboplatin (NSC241240), KSQ-4279 (NSC840948), and staurosporine (NSC755774) were obtained from the National Cancer Institute (NCI) Developmental Therapeutics Program Chemical Repository (34). The FDA-approved anticancer drug set is available from the NCI Developmental Therapeutics Program. […] The stock solutions were prepared in dimethyl sulfoxide (DMSO, Sigma-Aldrich, St. Louis, MO, cat. D2650) at 800-fold the tested concentration and stored at -70 degrees C prior to their use. All drugs and investigational agents were tested over a range starting from a high concentration at or near the clinical Cmax and decreasing in half-log increments. If the clinical Cmax for an agent had not been determined, the highest concentration tested was 10 microM.
2.3 Cell Culture. All cells were maintained in an incubator at 37 degrees C and 5% CO2 with 95% humidity. The PDC lines were cultured according to standard operating procedures established by the NCI PDMR. All PDCs were thawed and cultured in Matrigel-coated flasks prepared with a working solution of 1X Ham's F-12 nutrient mix, without supplementation (Invitrogen, cat. 11765054), 100 U/mL penicillin-streptomycin (Invitrogen, cat. 15140122), and 2.5% Matrigel (Corning Inc., cat. 354248) for the first three passages. The 857933-349-R-J2-PDC line was cultured in 6C/Colon 1B media, which includes advanced DMEM/F-12 (Thermo Fisher Scientific, cat. 12634028), 10 mM HEPES (Thermo Fisher Scientific, cat. 15630080), 1X GlutaMAX supplement (Thermo Fisher Scientific, cat. 35050061), 0.1 mg/mL primocin (InvivoGen, cat. ant-pm-2), 10% defined fetal bovine serum, heat inactivated (HyClone Laboratories Inc., cat. SH30070.03HI), 50% L-WRN conditioned media (ATCC, cat. CRL-3276), 1.25 mM N-Acetyl-L-cysteine (Sigma-Aldrich, cat. A9165), 10 mM nicotinamide (Sigma-Aldrich, cat. N0636), 1X B-27 supplement (Thermo Fisher Scientific, cat. 17504044), 1X N-2 supplement (Thermo Fisher Scientific, cat. 17502048), 10 microM Y-27632 dihydrochloride (Tocris Bioscience, cat. 1254), and 50 ng/mL human EGF recombinant protein (Thermo Fisher Scientific, cat. PHG0311). The 485176-168-R4-J1-PDC line was cultured in Panc media, which includes all 6C/Colon 1B media components plus 100 ng/mL human FGF-10 (Thermo Fisher Scientific, cat. 100-26), 500 nM SB-431542 (Selleckchem, cat. S1067), and gastrin (Tocris, cat. 3006).
[…]

[1] = second compound 0.0316 µM, first compound 0.0316 µM
[2] = second compound 0.0316 µM, first compound 0.1 µM
[3] = second compound 0.0316 µM, first compound 0.316 µM
[4] = second compound 0.0316 µM, first compound 1 µM
[5] = second compound 0.0316 µM, first compound 3.16 µM
[6] = second compound 0.0316 µM, first compound 10 µM
[7] = second compound 0.1 µM, first compound 0.0316 µM
[8] = second compound 0.1 µM, first compound 0.1 µM
[9] = second compound 0.1 µM, first compound 0.316 µM
[10] = second compound 0.1 µM, first compound 1 µM
[11] = second compound 0.1 µM, first compound 3.16 µM
[12] = second compound 0.1 µM, first compound 10 µM
[13] = second compound 0.316 µM, first compound 0.0316 µM
[14] = second compound 0.316 µM, first compound 0.1 µM
[15] = second compound 0.316 µM, first compound 0.316 µM
[16] = second compound 0.316 µM, first compound 1 µM
[17] = second compound 0.316 µM, first compound 3.16 µM
[18] = second compound 0.316 µM, first compound 10 µM
[19] = second compound 1 µM, first compound 0.0316 µM
[20] = second compound 1 µM, first compound 0.1 µM
[21] = second compound 1 µM, first compound 0.316 µM
[22] = second compound 1 µM, first compound 1 µM
[23] = second compound 1 µM, first compound 3.16 µM
[24] = second compound 1 µM, first compound 10 µM
[25] = second compound 3.16 µM, first compound 0.0316 µM
[26] = second compound 3.16 µM, first compound 0.1 µM
[27] = second compound 3.16 µM, first compound 0.316 µM
[28] = second compound 3.16 µM, first compound 1 µM
[29] = second compound 3.16 µM, first compound 3.16 µM
[30] = second compound 3.16 µM, first compound 10 µM
[31] = second compound 10 µM, first compound 0.0316 µM
[32] = second compound 10 µM, first compound 0.1 µM
[33] = second compound 10 µM, first compound 0.316 µM
[34] = second compound 10 µM, first compound 1 µM
[35] = second compound 10 µM, first compound 3.16 µM
[36] = second compound 10 µM, first compound 10 µM
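Note: spheroids exposed to compounds for seven days.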

CCCS(=O)(=O)Nc1ccc(F)c(C(=O)c2c[nH]c3ncc(-c4ccc(Cl)cc4)cc23)c1F + CN(C)c1ccc(Nc2c3ccc(NC(=O)CCN4CCCC4)cc3nc3cc(NC(=O)CCN4CCCC4)ccc23)cc1
8.45 µM: IC50 (second compound 0.1 µM)
> 10 µM: IC50 (second compound 0.0316 µM) | IC50 (second compound 0.316 µM) | IC50 (second compound 1 µM) | IC50 (second compound 3.16 µM) | IC50 (second compound 10 µM)
inactive: viability, T/C [1] 91.6% | viability, T/C [2] 94.2% | viability, T/C [3] 103% | viability, T/C [4] 66.5% | viability, T/C [5] 72.2% | viability, T/C [6] 60.6% | viability, T/C [7] 78.2% | viability, T/C [8] 83.9% | viability, T/C [9] 95% | viability, T/C [10] 80.3% | viability, T/C [11] 68.1% | viability, T/C [12] 46.9% | viability, T/C [13] 105% | viability, T/C [14] 78.5% | viability, T/C [15] 89.6% | viability, T/C [16] 94.7% | viability, T/C [17] 83.1% | viability, T/C [18] 68.1% | viability, T/C [19] 82.5% | viability, T/C [20] 86% | viability, T/C [21] 83.3% | viability, T/C [22] 80.2% | viability, T/C [23] 79.3% | viability, T/C [24] 60.8% | viability, T/C [25] 97.5% | viability, T/C [26] 101% | viability, T/C [27] 108% | viability, T/C [28] 87.8% | viability, T/C [29] 84.9% | viability, T/C [30] 53.8% | viability, T/C [31] 103% | viability, T/C [32] 111% | viability, T/C [33] 131% | viability, T/C [34] 122% | viability, T/C [35] 115% | viability, T/C [36] 78.4%

COc1ncnc(C2CC2)c1-c1ncc2cnn(Cc3ccc(-c4nc(C(F)(F)F)cn4C(C)C)cc3)c2n1 + CN(C)c1ccc(Nc2c3ccc(NC(=O)CCN4CCCC4)cc3nc3cc(NC(=O)CCN4CCCC4)ccc23)cc1
> 10 µM: IC50 (second compound 0.0316 µM) | IC50 (second compound 0.1 µM) | IC50 (second compound 0.316 µM) | IC50 (second compound 1 µM) | IC50 (second compound 3.16 µM) | IC50 (second compound 10 µM)
inactive: viability, T/C [1] 94.4% | viability, T/C [2] 96.5% | viability, T/C [3] 84% | viability, T/C [4] 72.3% | viability, T/C [5] 63.5% | viability, T/C [6] 87.7% | viability, T/C [7] 86% | viability, T/C [8] 86.7% | viability, T/C [9] 80.9% | viability, T/C [10] 86.6% | viability, T/C [11] 101% | viability, T/C [12] 67.2% | viability, T/C [13] 90.8% | viability, T/C [14] 86% | viability, T/C [15] 74.2% | viability, T/C [16] 81.2% | viability, T/C [17] 90.1% | viability, T/C [18] 74.2% | viability, T/C [19] 73.8% | viability, T/C [20] 86.4% | viability, T/C [21] 93.6% | viability, T/C [22] 74.3% | viability, T/C [23] 90.4% | viability, T/C [24] 76.8% | viability, T/C [25] 98.3% | viability, T/C [26] 109% | viability, T/C [27] 108% | viability, T/C [28] 98.3% | viability, T/C [29] 108% | viability, T/C [30] 76.6% | viability, T/C [31] 115% | viability, T/C [32] 116% | viability, T/C [33] 86.6% | viability, T/C [34] 107% | viability, T/C [35] 101% | viability, T/C [36] 62.9%

COc1cc(C2c3cc4c(cc3C(OC3OC5COC(C)OC5C(O)C3O)C3COC(=O)C23)OCO4)cc(OC)c1O (stereo unspecified) + Cc1[nH]c2ccc(F)cc2c1-c1nc2c3cccnc3c3ncccc3c2[nH]1
> 10 µM: IC50 (second compound 0.0316 µM) | IC50 (second compound 0.1 µM) | IC50 (second compound 0.316 µM) | IC50 (second compound 1 µM) | IC50 (second compound 3.16 µM) | IC50 (second compound 10 µM)
inactive: viability, T/C [1] 95.3% | viability, T/C [2] 89.1% | viability, T/C [3] 83.8% | viability, T/C [4] 99.4% | viability, T/C [5] 76.6% | viability, T/C [6] 61.3% | viability, T/C [7] 113% | viability, T/C [8] 97.5% | viability, T/C [9] 92.2% | viability, T/C [10] 92.6% | viability, T/C [11] 76.2% | viability, T/C [12] 62.7% | viability, T/C [13] 110% | viability, T/C [14] 109% | viability, T/C [15] 84.1% | viability, T/C [16] 110% | viability, T/C [17] 56.4% | viability, T/C [18] 61.8% | viability, T/C [19] 138% | viability, T/C [20] 121% | viability, T/C [21] 96.6% | viability, T/C [22] 75.8% | viability, T/C [23] 72.4% | viability, T/C [24] 71.4% | viability, T/C [25] 125% | viability, T/C [26] 109% | viability, T/C [27] 76.2% | viability, T/C [28] 97.6% | viability, T/C [29] 72.3% | viability, T/C [30] 60.5% | viability, T/C [31] 111% | viability, T/C [32] 97.7% | viability, T/C [33] 79.1% | viability, T/C [34] 82.8% | viability, T/C [35] 74.2% | viability, T/C [36] 58.8%
